Assays:
[1] = system: group A streptococcus 64/14; assay: Effect of pH and ionic strength on binding of labeled plasmin(ogen) to bacteria
Description: To assess the effect of pH on the bacterium: plasmin (ogen) interaction, 50 μl of labeled plasminogen of plasmin (approximately 2×10^4 cpm) were added to 1.0 ml of VBS containing 0.05% Tween-20 adjusted to the appropriate pH. After 15 min at room temperature, 50 μl of VBS containing approximately 10^7 bacteria (strain 64/14) were added and the mixture was incubated at 37 C for 15 min. The bacterial suspensions were centrifuged at 1000 g for 7 min to separate bacteria from unbound labeled proteins and the pellets were washed twice with 2 ml of VBS at the appropriate pH. The radioactivity associated with the bacterial pellet in duplicate experiments was measured using a Beckman 5500 autogamma counter.
To assess the effect of ionic strength on the bacterium:plasmin (ogen) interaction, similar studies were carried out in solutions containing different concentrations of NaCl with 0.05% Tween-20. The bacterial pellets were washed in the appropriate NaCl concentration to remove unbound labeled proteins.

[2] = target: binding of plasmin to the group A streptococcus 64/14; assay: Inhibition of plasmin binding to bacteria by amino acids; settings: pH 7.0, 37 C, 15 min, strain 64/14; read-out: concentration giving fifty percent inhibition of binding of plasmin to the bacteria
Description: Labeled plasmin (100 μl containing approximately 2×10^4 cpm) was added to 200 μl VBS-gel containing varying concentrations of epsilon-aminocaproic acid (EACA), lysine, or arginine, and incubated at 37 C for 15 min. The pH of each solution was 7.0. One hundred μl of VBS-gel containing 10^7 bacteria (strain 64/14) were then added and the mixture was incubated at 37 C for 15 min. The bacterial suspensions were centrifuged at 1000 g for 7 min and washed twice with 2 ml of VBS-gel containing the same concentration of amino acid present during the incubation period. The percent inhibition of binding was calculated for duplicate experiments by comparison with binding in VBS-gel alone.

[3] = system: plasmin prebound to the group A streptococcus; assay: Dissociation of prebound plasmin from bacteria by amino acids; settings: compared with concentration inhibiting binding by 50%
Description: The ability of EACA, lysine, or arginine to dissociate bound plasmin from the bacteria was examined in the following manner. Labeled plasmin was incubated with 10^7 bacteria in VBS-gel containing no amino acid at 37 C for 15 min. The bacteria were pelleted by centrifugation and washed twice with 2 ml on VBS-gel. After determining the radioactivity associated with the bacteria, the pellets were resuspended in solutions of VBS-gel containing varying concentrations of amino acid (pH 7.0) as described above. The mixtures were incubated at 37 C for 15 min and washed twice with VBS-gel containing the appropriate amino acid concentration. The radioactivity associated with the bacteria in duplicate experiments was again measured and the percentage dissociated was calculated.

[4] = system: plasmin bound to strain 64/14; assay: Preparative elution of bound labeled plasmin from strain 64/14 with lysine; type: binding, group A streptococcus; settings: 20 mM lysine in VBS-gel, room temperature, 30 min
Description: Plasmin which had been bound to and eluted from strain 64/14 by treatment with lysine was also examined in similar binding studies. Eluted plasmin was obtained by incubating 2 ml of stock 10% wet weight/volume bacterial suspension (strain 64/14) with approximately 20 μg of labeled plasmin at room temperature for 45 min. This suspension was centrifuged at 1000 g for 10 min and washed once with 10 ml of VBS-gel, and the radioactivity associated with the bacterial pellet was measured. The pellet was then resuspended in VBS-gel containing 20 mM lysine and incubated at room temperature for 30 min. The suspension was centrifuged and the supernatant recovered. Approximately 90% of the radioactivity originally associated with the bacterial pellet was dissociated by the lysine treatment. The dissociated plasmin in the supernatant was the subjected to gel filtration of a G-25 column to separate lysine from plasmin. Fractions containing plasmin were collected and stored at -20 C.

[5] = system: Mr ≈41,000 dalton plasmin binding protein of strain 64/14; assay: Western blot probed with 125I-human plasmin in presence or absence of EACA; parameters: species or system group A streptococcus; settings: 1.0 mM EACA
Description: (§1) Gels intended for Western blotting were equilibrated in 25 mM Tris, 0.2 M glycine pH 8.0 containing 20% v/v methanol (electroblot buffer) for 25 minutes. Protein blotting, from SDS-PAGE gels, was performed using the `Trans-Blot SD Semi-Dry` electrophoretic transfer cell (Bio Rad, Richmond, Calif.). Blots were blocked as described for the dot-blot procedure, and probed for 3-4 hours at room temperature with radiolabeled human plasmin in either the presence or absence of 1.0 mM EACA, to identify functionally active protein bands. In studies of antigenic properties of these proteins, blots were probed with rabbit anti-plasmin receptor antibody or anti-group C streptokinase antibody by incubation with […] IgG per ml of probing solution (approximately a 1:3000 dilution of antisera) for three hours and probed with ^125 I-streptococcal protein G containing 3×10^4 cpm/ml. For probing with mouse monoclonal antibodies specific for epitopes on group C streptokinase, blots were probed with a 1:100 dilution of the monoclonal antibody stock solution for three hours, followed by probing with goat antibody specific for mouse IgG at 1.0 μg/ml, followed by probing with ^125 I-streptococcal protein G containing 3×10^4 cpm/ml. Blots were then washed with 0.01 M EDTA pH 7.3, containing 1.0 M NaCl, 0.25% gelatin, 0.15% Tween 20. […]

[6] = system: Mr 48,000 plasminogen activator protein from strain 64/14; assay: as above; type: binding, group A streptococcus; settings: addition of EACA (1.0 mM)
Description: as §1

group C streptokinase = assay: as above; type: binding, group C streptococci; settings: addition of EACA (1.0 mM)
Description: as §1

[7] = system: group A streptococci strain 64/14; assay: Effect of Ca2+ and Mg2+ on binding of radiolabeled plasmin to bacteria; parameters: species or system group A streptococcus; settings: VBS-gel with 0.00015 M Ca2+ and 0.001 M Mg2+ vs metal free VBS-gel with 0.15 M EDTA
Description: Bindings of radiolabeled plasmin to group A streptococci strain 64/14 was studied in the following buffers: (1) VBS-gel containing 0.00015 M Ca^2+ and 0.001 M Mg^2+, or (2) metal free VBS-gel containing 0.15 M ethylenediaminetetraacetic acid (EDTA). In each case 400 μl of buffer was added to 100 μl of VBS-gel containing approximately 10^7 bacteria and 100 μl of VBS-gel containing 3×10^4 cpm of radiolabeled plasmin. After incubation at 37 C for 15 minutes, the mixtures were centrifuged at 1000 g for 7 min to separate bacteria from unbound radiolabel, the pellets were washed twice with 2 ml of the appropriate buffer, and radioactivity associated with the bacterial pellet in duplicate experiments was measured.

human plasmin = target: T1, human plasmin (Homo sapiens, UniProt P00747); assay: Western blot probed with 125I-labeled human plasmin (plasmin binding activity); settings: SDS-PAGE
T1 construct: from tissue
Description: PAGE and protein blotting. SDS-polyacrylamide gel electrophoresis (PAGE) was carried out with a 10% (wt/vol) polyacrylamide separating gel and a 4% (wt/vol) polyacrylamide stacking gel according to the method of Laemmli (Laemmli, U.K. [1970] Nature 227:680-685). Gels for Western blotting (immunoblotting) were equilibrated, and separated proteins were transferred by methods described previously (Broder et al. [1991], supra). For studies of plasmin binding, nitrocellulose membranes were blocked for 1 hour at room temperature in NET-gel buffer. The blots were then incubated for 2 hours at room temperature with ^125 I-human plasmin to identify plasmin-binding protein bands (Broder et al., supra). The blots were washed in NET-gel and subjected to autoradiography at -70 C.
Gels intended for Western blotting were equilibrated in 25 mM Tris, 0.2 M glycine pH 8.0 containing 20% v/v methanol (electroblot buffer) for 25 minutes. Protein blotting, from SDS-PAGE gels, was performed using the `Trans-Blot SD Semi-Dry` electrophoretic transfer cell (Bio Rad, Richmond, Calif.). Blots were blocked as described for the dot-blot procedure, and probed for 3-4 hours at room temperature with radiolabeled human plasmin in either the presence or absence of 1.0 mM EACA, to identify functionally active protein bands. […]

plasminogen = plasminogen (Homo sapiens, UniProt P00747); assay: Plasminogen activator activity of separated proteins; type: biochemical
plasminogen, sequence (P00747 20-810 limits assumed): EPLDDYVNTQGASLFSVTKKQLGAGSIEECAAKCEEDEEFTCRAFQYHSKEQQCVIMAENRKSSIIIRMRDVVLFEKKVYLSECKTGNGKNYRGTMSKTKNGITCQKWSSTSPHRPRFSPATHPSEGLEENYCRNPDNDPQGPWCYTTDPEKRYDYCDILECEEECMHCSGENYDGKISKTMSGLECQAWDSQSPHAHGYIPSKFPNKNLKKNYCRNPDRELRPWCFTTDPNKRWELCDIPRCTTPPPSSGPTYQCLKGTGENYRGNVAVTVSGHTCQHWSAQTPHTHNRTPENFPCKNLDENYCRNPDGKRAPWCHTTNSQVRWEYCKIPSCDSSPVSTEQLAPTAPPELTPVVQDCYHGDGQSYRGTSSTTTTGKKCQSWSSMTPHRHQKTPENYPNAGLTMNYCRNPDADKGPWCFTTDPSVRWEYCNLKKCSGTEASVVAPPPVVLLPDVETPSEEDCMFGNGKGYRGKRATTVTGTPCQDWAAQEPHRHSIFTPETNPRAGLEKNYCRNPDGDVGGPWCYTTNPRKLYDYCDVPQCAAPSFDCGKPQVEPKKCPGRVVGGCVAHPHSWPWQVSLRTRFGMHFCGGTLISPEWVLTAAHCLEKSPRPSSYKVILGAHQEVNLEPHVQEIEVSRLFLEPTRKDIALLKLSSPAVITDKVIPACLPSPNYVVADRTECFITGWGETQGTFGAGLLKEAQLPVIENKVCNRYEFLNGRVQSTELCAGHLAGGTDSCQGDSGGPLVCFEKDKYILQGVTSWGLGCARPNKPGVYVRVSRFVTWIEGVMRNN

## plasminogen
[1]; 0.1 to 0.4 M NaCl
  fraction bound to bacteria: less than 10%
[1]; entire pH range tested (pH 5-9)
  direct binding of offered counts to the bacteria: less than 10%
[1]; ionic strength below 0.075 M NaCl
  binding to the bacteria at low ionic strength: significant binding

## NCCCC[C@H](N)C(=O)O [lysine]
[2]
  IC50: 2 mM
[3]
  concentration of amino acid required to elute 50% of the bound plasmin: approximately equivalent
[4]
  radioactivity originally associated with the bacterial pellet dissociated: Approximately 90%

## N=C(N)NCCC[C@H](N)C(=O)O [arginine]
[2]
  IC50: 25 mM
[3]
  concentration of amino acid required to elute 50% of the bound plasmin: approximately equivalent

## NCCCCCC(=O)O [EACA, epsilon-aminocaproic acid]
[5]
  effect on binding of 125I-labeled human plasmin to the Mr ≈41,000 dalton protein in concentrated culture supernatant of strain 64/14: inhibited
  effect on plasmin binding activity of Mr ≈41,000 dalton band in the mutanolysin extract of strain 64/14: reduced significantly
[6]
  effect on binding of plasmin to the Mr 48,000 plasminogen activator protein from strain 64/14: no effect
Group C streptokinase
  effect on binding of plasmin to the reference group C streptokinase molecule: no effect
[2]
  IC50: 0.15 mM
[3]
  concentration of amino acid required to elute 50% of the bound plasmin: approximately equivalent

B1: plasmin: Human plasmin generated from radiolabeled plasminogen by incubation with urokinase (protein, UniProt P00747 20-580; P00747 581-810, looked up)
Plasmin heavy chain A: EPLDDYVNTQGASLFSVTKKQLGAGSIEECAAKCEEDEEFTCRAFQYHSKEQQCVIMAENRKSSIIIRMRDVVLFEKKVYLSECKTGNGKNYRGTMSKTKNGITCQKWSSTSPHRPRFSPATHPSEGLEENYCRNPDNDPQGPWCYTTDPEKRYDYCDILECEEECMHCSGENYDGKISKTMSGLECQAWDSQSPHAHGYIPSKFPNKNLKKNYCRNPDRELRPWCFTTDPNKRWELCDIPRCTTPPPSSGPTYQCLKGTGENYRGNVAVTVSGHTCQHWSAQTPHTHNRTPENFPCKNLDENYCRNPDGKRAPWCHTTNSQVRWEYCKIPSCDSSPVSTEQLAPTAPPELTPVVQDCYHGDGQSYRGTSSTTTTGKKCQSWSSMTPHRHQKTPENYPNAGLTMNYCRNPDADKGPWCFTTDPSVRWEYCNLKKCSGTEASVVAPPPVVLLPDVETPSEEDCMFGNGKGYRGKRATTVTGTPCQDWAAQEPHRHSIFTPETNPRAGLEKNYCRNPDGDVGGPWCYTTNPRKLYDYCDVPQCAAPSFDCGKPQVEPKKCPGR
Plasmin light chain B: VVGGCVAHPHSWPWQVSLRTRFGMHFCGGTLISPEWVLTAAHCLEKSPRPSSYKVILGAHQEVNLEPHVQEIEVSRLFLEPTRKDIALLKLSSPAVITDKVIPACLPSPNYVVADRTECFITGWGETQGTFGAGLLKEAQLPVIENKVCNRYEFLNGRVQSTELCAGHLAGGTDSCQGDSGGPLVCFEKDKYILQGVTSWGLGCARPNKPGVYVRVSRFVTWIEGVMRNN
modifications: Plasmin radiolabeled
notes: Human plasmin generated from radiolabeled plasminogen by incubation with urokinase
[1]; maximal binding, between pH 5 and 8, about 10^7 bacteria, 37 C, 15 min
  counts offered being bound by the group A streptococcus 64/14: approximately 60%
[7]
  amount bound by the bacteria, effect of divalent cations: the same in the presence or absence of divalent cations

B2: plasmin receptor: Mr ≈41,000 dalton plasmin binding protein extracted with mutanolysin from group A streptococcal strain 64/14 (protein)
chain: MVVKVGINGFGRIGRLAFRRIQNIEGVEVTRINDLTDPNMLAHLLKYDTTQGRFDGTVEVKEGGFEVNGNFIKVSAERDPENIDWATDGVEIVLEATGFFAKKEAAEKHLHANGAKKVVITAPGGNDVKTVVFNTNHDILDGTETVISGASCTTNCLAPMAKALHDAFGIQKGLMTTIHAYTGDQMILDGPHRGGDLRRARAGAANIVPNSTGAAKAIGLVIPELNGKLDGAAQRVPVPTGSVTELVVTLDKNVSVDEINSAMKAASNDSFGYTEDPIVSSDIVGVSYGSLFDATQTKVMEVDGSQLVKVVSWYDNEMSYTAQLVRTLEYFAKIAK
Human plasmin
  binding of 125I-labeled human plasmin on blot: capable of binding to human plasmin
Human plasmin; listed as Mr ≈41,000 dalton protein
  binding of 125I-labeled human plasmin on blot: retained fractional plasmin binding activity
plasminogen; affinity purified protein
  plasminogen activating potential: lacked any plasminogen activating potential
plasminogen; extracted (mutanolysin) preparation from strain 64/14
  plasminogen activator activity: no plasminogen activator activity
